Assay in all cases: NCI tumour cell line growth inhibition, 48 h
Assay [1] has as its system KM20L2 colon.
For assay [2], the system named is DLD-1 colon.
In assay [3] the test system is M19-MEL melanoma.
Assay [4] deals with DMS 273 small cell lung.
Assay [5] relates to LXFL 529 NSCLC.
Assay [6] relates to XF 498 CNS.
Assay [7] concerns HOP-18 NSCLC.
Assay [8] deals with MCF7 breast.
Assay [9] concerns MDA-MB-231 breast.
The subject of assay [10] is BT-549 breast.

The structures appear in SMILES notation.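 Exposure lasted 48 hours, with cells grown in 96-well plates and compounds tested at five concentrations. GI50 is the concentration that inhibits growth by half. Definition used: TGI = concentration required for complete inhibition of growth.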

As for `N#C/C(=C\c1ccccc1O)C(N)=O`, the TGI in assay [1], in [2], in assay [3], in assay [4], in assay [5] and in assay [6] was above 100 µM throughout.

For `O=C(NCCCCCCCCNC(=O)c1cnc2ccccc2n1)c1cnc2ccccc2n1`, the TGI in assay [7], in [2], in [3], in assay [4], in assay [5] and in assay [6] was above 100 µM in each case.

Turning to `CC1CC2C3CC(F)C4=CC(=O)C=CC4(C)C3(F)C(O)CC2(C)C1(O)C(=O)COC(=O)C(C)(C)C` (configuration not stated), the TGI in [1], in [2], in assay [3], in [4] and in assay [6] was above 100 µM each time.

Turning to `CCC(C)CN1C(=O)NC(C)(Cc2ccccc2)C1=O` (configuration not stated), the TGI in assay [7], in assay [1], in assay [2], in assay [3], in assay [4] and in assay [5] was above 100 µM in each case. The TGI in [6] is above 100 µM.

`CCCCCCCCCCCOC(=S)NC(C)C`: the TGI in assay [7] stood at 88.5 µM; in [1], 30.2 µM; in assay [2], 49 µM; in [3], 58.6 µM; in assay [4], 34.4 µM; in assay [5] it was 85.4 µM. In assay [6], this compound came in with a TGI of 30.9 µM.

`OCCOc1ccc(-c2cc(-c3ccccn3)nc(-c3ccccn3)c2)cc1`: the TGI was 5.59 µM in assay [7]; above 100 µM in [8]; above 41.8 µM in assay [1]; above 40.2 µM in [9]; above 100 µM in assay [2]; 0.593 µM in assay [3]. The TGI in assay [5] and in assay [10] was above 100 µM in each case.

With `Cc1ccc(C(=O)O/N=C2/CCCC/C2=C\c2ccccc2)cc1`, the TGI in [7] is above 100 µM; in assay [1], above 100 µM; in assay [2] it was above 100 µM; in [3], above 100 µM; in assay [4], 76.9 µM; in assay [5], 30.9 µM. This compound also gave a TGI in assay [6] above 100 µM.

For `CC1[C@@H]2[C@@H](C=C3C4CCC5Cc6nc7c(nc6C[C@@]5(C)C4C[C@H](O)[C@]32CO)CC2CCC3C4=C[C@H]5O[C@@]6(O[C@@](C)(CO)C[C@@H]6O)C(C)[C@@]5(O)[C@]4(C)[C@@H](O)CC3[C@]2(C)C7)O[C@]12CCC(C)(C)O2` (some centres not stated), the GI50 in [7] was 2.08 µM; in [1], 0.00719 µM; in [2] it was 0.583 µM; in assay [3], 2.13 µM; in assay [4], below 0.000365 µM; in assay [6] it was below 0.000365 µM. Also, the TGI was above 3.65 µM in [7]; 0.505 µM in assay [8]; 0.619 µM in assay [1]; above 3.65 µM in [2]; above 3.65 µM in assay [3]; 0.0713 µM in [5].

On to `COc1cc(CCc2cccnc2)cc(OC)c1OC`, for which the TGI in assay [7], in assay [1], in assay [2], in assay [3], in assay [4] and in assay [5] was above 100 µM throughout.

On to `CCOc1ccc(NC(=O)CC2SC(=Nc3ccc(Cl)cc3)NC2=O)cc1` (configuration not stated), for which the TGI in [7], in [1], in assay [2], in assay [3], in assay [4] and in assay [5] was above 100 µM in each case. In assay [6], this compound came in with a TGI above 100 µM.

Turning to `CCC[CH2][Sn]([CH2]CCC)([O]C(=O)c1c(F)cccc1F)[O]C(=O)c1c(F)cccc1F`, the GI50 was 1.89 µM in assay [7]; 1.61 µM in assay [1]; 0.624 µM in assay [2]; 0.364 µM in assay [3]; 1.07 µM in assay [4]; 0.139 µM in assay [5]. Also, in [6], the GI50 is 1.31 µM. Also, the TGI in [7] stood at 3.3 µM; in assay [1], 2.98 µM; in [2], 1.91 µM; in assay [3] it was 1.43 µM; in assay [4], 2.27 µM; in [5] it was 0.318 µM. In assay [6], this compound returned a TGI of 2.59 µM.

For `N#Cc1cccc(N2C(=O)c3c(c(-c4ccccc4)c(-c4ccc(Sc5ccc(-c6c(-c7ccccc7)c7c(c(-c8ccccc8)c6-c6ccccc6)C(=O)N(c6cccc(C#N)c6)C7=O)cc5)cc4)c(-c4ccccc4)c3-c3ccccc3)C2=O)c1`, the TGI in assay [1] was above 100 µM; in [2], above 100 µM; in [4], above 100 µM; in assay [5], above 100 µM; in assay [6], 85 µM.

Turning to `N=C(c1ccccc1)N(c1ccccc1)c1ccccc1`, the TGI in [7] was 13.1 µM; in assay [1], above 100 µM; in [2], above 100 µM; in [3], above 100 µM; in assay [4] it was above 100 µM; in [5], above 100 µM.

As for `CN(C)c1ccc2c(c1)C(=O)N(OS(=O)(=O)c1ccc([N+](=O)[O-])cc1)C2=O`, the TGI in assay [7] is above 100 µM; in assay [2], 86.8 µM; in [3], 52.7 µM; in [4], 43.9 µM; in [5], 37 µM; in assay [6], 35.1 µM.

As for `CC1=CC2CC(C)=C(CC[C@]3(C)CC[C@H]([C@@H](C)C(=O)O)OO3)C(C)(C)C2CC1` (some centres not stated), the TGI in assay [7] stood at 1.45 µM; in assay [1] it was 2.63 µM; in assay [2], 0.426 µM; in [3], 3.05 µM; in assay [4] it was 1.09 µM; in assay [5], 0.414 µM. In assay [6], this compound returned a TGI of 0.768 µM.

As to `COc1ccc(/C(=N/NC(N)=O)C2(O)C(=O)Nc3ccc([N+](=O)[O-])cc32)cc1` (configuration not stated), the TGI in assay [1] is 51.5 µM; in [2], 57 µM; in assay [3], 45.6 µM; in assay [4], 39.3 µM; in [5], 35.9 µM; in assay [6], 30.1 µM.

Turning to `CCC1(C)NN=c2s/c(=C/c3ccc(OC)cc3)c(=O)n2N1` (configuration not stated), the TGI in assay [1], in [2], in [4], in assay [5] and in [6] was above 100 µM in each case.

Turning to `CC1=C(C(=O)NCc2ccccc2)C(c2ccc(C3C(C(=O)NCc4ccccc4)=C(C)NC(C)=C3C(=O)NCc3ccccc3)cc2)C(C(=O)NCc2ccccc2)=C(C)N1`, the TGI in assay [7] was found to be 52.7 µM; in [1], 29 µM; in [2], 13.1 µM; in assay [3], 21.3 µM; in assay [4], 31.7 µM; in [5], 15.5 µM. The TGI in [6] came out at 31.1 µM.

For the compound `CC[P+](C)(Cc1ccccc1)c1ccccc1` (configuration not stated), the TGI in [7], in [1], in assay [2], in [3], in [4] and in assay [5] was above 100 µM throughout. For the same compound, the TGI in [6] was above 100 µM.

Consider `Cc1ccc(C)c(NC(=O)C(=O)CC(=O)C2CCOC2=O)c1` (configuration not stated), for which the TGI in assay [1], in assay [2], in assay [3], in assay [4], in assay [5] and in assay [6] was above 100 µM in each case.

As for `FC(F)(F)C1(Cl)C(c2ccccc2)=C1c1ccccc1`, the TGI in assay [7] was determined as 35.6 µM; in assay [1], 30.1 µM; in assay [2], 28.3 µM; in assay [3] it was 27.7 µM; in [4], 27.6 µM; in assay [5] it was 26.3 µM. Moreover, in assay [6], the TGI was found to be 26.5 µM.

In the case of `Cc1cccc(C(=O)c2cccc3ccccc23)c1C(=O)O`, the TGI in assay [7], in assay [1], in [2], in assay [3], in [4] and in [5] was above 100 µM in each case. For the same compound, the TGI in assay [6] is above 100 µM.

`CC1=NN(C(=O)c2ccccc2O)C(=O)/C1=C/c1ccc([N+](=O)[O-])cc1`: the GI50 in assay [8] is 0.392 µM; in [10], 0.127 µM. The TGI in assay [8], in assay [1], in assay [9], in assay [2], in assay [3] and in assay [5] was above 100 µM in each case. Besides, the TGI in assay [10] and in [6] was above 100 µM in each case.

As to `Nc1nc(CCC(=O)Nc2cccc(C(F)(F)F)c2)cc(-c2cccc3ccccc23)n1`, the TGI in [7], in [1], in assay [2], in assay [3], in [4] and in assay [5] was above 100 µM throughout. The TGI in assay [6] was above 100 µM.

Regarding `O=C1c2ccccc2C2(O)Nc3cc(O)ccc3C12O` (configuration not stated), the TGI in assay [7], in assay [1], in assay [2], in assay [4] and in assay [5] was above 100 µM in each case.

Turning to `C#CCC[C@@H]1O[C@@]1(C)CC/C=C(\C)CC/C=C/C=O`, the TGI in assay [1] was above 100 µM; in assay [3] it was 48.1 µM; in [4], 39 µM; in assay [5], 51.1 µM; in assay [6] it was 58.2 µM.

`CC1=CCC[C@@]2(C)C(CC[C@@H]2C(C)/C=C/C(C)C)c2ccc(cc2C(=O)O)C[C@@H](O)CC1` (some centres not stated): the TGI is 14 µM in [2], 29.6 µM in assay [3], 34.2 µM in [4] and 23.9 µM in assay [5].

Take `O=C1OC(=O)c2c1c(-c1ccccc1)cn2-c1ccc(Cl)cc1`: the TGI in assay [7], in assay [1], in assay [2], in assay [3], in assay [4] and in assay [5] was above 100 µM in each case. For the same compound, in assay [6], the TGI was above 100 µM.

For `c1ccc(SC2(Sc3ccccc3)CCCC2)cc1`, the TGI in assay [1], in [2], in [3], in [4] and in assay [6] was above 100 µM in each case.

With `O=C(O)c1ccccc1Cc1ccco1`, the TGI in assay [7], in [1], in [2], in assay [4] and in [5] was above 100 µM throughout.

Regarding `COc1cc2c(cc1O)C=NCC2`, the TGI in [1], in assay [2], in assay [3], in assay [4], in [5] and in assay [6] was above 100 µM each time.

As to `NNC(=S)N/N=C(\CCCC(=O)NCCc1ccccc1)CC(=O)c1ccccc1`, the TGI in [7], in assay [1], in assay [2], in assay [3] and in assay [5] was above 100 µM each time.

As to `O=C(O)CN(c1ccccc1)S(=O)(=O)c1ccc(NC(=O)c2ccccc2)cc1`, the TGI in [7], in assay [1], in assay [2], in assay [3], in assay [4] and in assay [5] was above 100 µM each time. In addition, the TGI in assay [6] is above 100 µM.

With `COc1ccc(S(=O)(=O)NC(C)C(=O)O)cc1` (configuration not stated), the TGI in [7], in assay [1], in assay [2], in assay [3], in assay [4] and in assay [5] was above 100 µM in each case. In [6], this compound registered a TGI of 63.4 µM.

The record behind these values is PubChem BioAssay (NCI).
